# Experimental data published in patent US20060122181A1, “Heteroaromatic pentacyclic compound and medicinal use thereof” (Japan Tobacco Inc., priority 2003, published 2006).
row,Structure (SMILES),melting point [°C]
1,CC(C)Cc1ccc(CN(C)c2ccc(-c3csc(CN(CC(=O)O)C(=O)Cc4ccc(Cl)cc4)n3)cc2)cc1 [Example 3-57],150 to 152
2,Cc1ccc(OCc2ccc(C(F)(F)F)cc2)c(-c2csc(CN(CC(=O)O)Cc3ccccc3)n2)c1 [Example 3-8],168 to 170
3,Cc1ccc(OCc2ccc(-c3csc(CN(CC(=O)O)Cc4ccccc4)n3)cc2)c(C(C)(C)C)c1 [Example 1-43],146
4,CCCCOc1ccc(COc2ccc(-c3csc(CN4CCC(c5cccc(C(=O)O)c5)CC4)n3)cc2)cc1 [Example 1-175],222 to 225
5,CCC(CC)c1ccc(N(Cc2ccc(-c3csc(CSc4ccc(C(=O)O)cc4)n3)cc2)C(C)C)cc1 [Example 1-13],132.5
6,CCCC(CCC)c1ccc(OCc2ccc(-c3csc(CN4Cc5ccccc5C[C@H]4C(=O)O)n3)cc2)cc1 [Example 1-46],77 to 82
7,CCC(CC)c1ccc(N(Cc2ccc(-c3ccc(COc4cncc(C(=O)O)c4)s3)cc2)C(C)C)cc1 [Example 4-17],160 to 164
8,CCCC(CCC)c1ccc(CN(C)c2ccc(-c3csc(COc4cncc(C(=O)O)c4)n3)cc2)cc1 [Example 3-94],178 to 181
9,CC(C)CN(Cc1ccc(-c2csc(CN(CC(=O)O)S(=O)(=O)c3ccccc3)n2)cc1)c1ccc(C(C)(C)C)cc1 [Example 1-31],168.5
10,CCCC(CCC)c1ccc(OCc2ccc(-c3csc(Cn4nc(C(C)(C)C)cc4C(=O)O)n3)cc2)cc1 [Example 1-179],123 to 125
11,CCCC(CCC)c1ccc(OCc2ccc(-c3csc(COc4cncc(C(=O)O)c4)c3)cc2)cc1.Cl,170 to 173
12,CCC(CC)c1ccc(N(Cc2ccc(-c3ccc(CN4Cc5ccccc5C[C@H]4C(=O)O)s3)cc2)C(C)C)cc1 [Example 4-28],152
13,CCCC(CCC)c1ccc(OCc2ccc(-c3csc(CN(CC(=O)O)C(=O)COc4ccccc4)n3)cc2)cc1 [Example 1-129],143 to 145
14,Cc1ccc(COc2ccc(-c3csc(CN4CCC(c5cccc(C(=O)O)c5)CC4)n3)cc2)cc1[N+](=O)[O-] [Example 1-184],205 to 210
15,CCCC(CCC)c1ccc(OCc2ccc(-c3csc(CN(CC(=O)O)CC(=O)Nc4cccnc4)n3)cc2)cc1 [Example 1-96],162.5
16,CCCC(CCC)c1ccc(N(Cc2ccc(-c3ccc(CN(CC(=O)O)Cc4nc(C(C)(C)C)cs4)s3)cc2)C(C)C)cc1 [Example 4-20],78 to 82
17,CCCC(CCC)c1ccc(COc2ccc(Cl)cc2-c2csc(CN(CC(=O)O)Cc3ccccc3)n2)cc1 [Example 3-13],130 to 131
18,CCC(CC)c1ccc(N(Cc2ccc(-c3csc(COc4ccc(C(=O)O)cn4)n3)cc2)C(C)C)cc1 [Example 1-3],177 to 181
19,CCCC(CCC)c1ccc(OCc2ccc(-c3ccc(C(=O)N(CC(=O)O)Cc4cccnc4)s3)cc2)cc1 [Example 4-47],153 to 156
20,CCCC(CCC)N(Cc1ccc(-c2csc(COc3cccc(C(=O)O)c3)n2)cc1)c1ccc(C(C)C)cc1 [Example 1-10],127 to 129
21,CCCC(CCC)c1ccc(OCc2ccc(-c3csc(CN(CCC(C)C)CC(=O)O)c3)cc2)cc1 [Example 4-71],176 to 182
22,CCC(CC)c1ccc(N(Cc2ccc(-c3csc(COc4cc(C(=O)O)ccc4[N+](=O)[O-])n3)cc2)C(C)C)cc1 [Example 1-93],198 to 200

row,Structure (SMILES),melting point [°C]
1,CCCC(CCC)c1ccc(OCc2ccc(-c3csc(CN(CC(=O)O)CC(=O)Nc4ccccn4)n3)cc2)cc1 [Example 1-100],133.5
2,CC(C)Cc1ccc(CN(C)c2ccc(-c3csc(CN(CC(=O)O)Cc4ccccc4)n3)cc2)cc1 [Example 3-39],149 to 151
3,CCCC(CCC)c1ccc(Cn2c(-c3ccccc3)c(-c3csc(CN4CCC(C(=O)O)CC4)n3)c3ccccc32)cc1 [Example 1-183],101 to 103
4,CN(Cc1ccccc1)c1ccc(-c2csc(CN(CC(=O)O)Cc3ccc(Cl)c(Cl)c3)n2)cc1 [Example 3-51],69 to 72
5,CCC(CC)c1ccc(N(Cc2ccc(-c3csc(CN4CCN(c5ccc(C(=O)O)cc5)CC4)n3)cc2)C(C)C)cc1 [Example 1-154],232 to 234
6,CCCC(CCC)c1ccc(COc2ccc(-c3csc(COc4ccc(C(=O)O)cc4)n3)cc2)cc1 [Example 3-2],204 to 207
7,CCC(CC)c1ccc(COc2ccc(-c3csc(CN(CC(=O)O)Cc4ccc(Cl)cc4)n3)cc2)cc1 [Example 3-17],154 to 157
8,CC(C)CN(Cc1ccc(-c2csc(COc3cncc(C(=O)O)c3)n2)cc1)c1ccc(C(C)C)cc1 [Example 1-8],196 to 197
9,CCCC(CCC)c1ccc(Cn2cc(-c3csc(CN4CCC(C(=O)O)CC4)n3)c3ccccc32)cc1 [Example 1-165],111 to 115
10,CC(C)c1ccc(Cn2c(-c3csc(CN4CCc5ccc(C(=O)O)cc5C4)n3)nc3ccc(N4CCOCC4)cc32)cc1 [Example 1-185],141 to 143.2
11,CCC(CC)c1ccc(N(Cc2ccc(-c3ccc(CN(CC(=O)O)Cc4nc5ccccc5[nH]4)s3)cc2)C(C)C)cc1 [Example 4-21],142 to 146
12,CCC(CC)c1ccc2c(c1)nc(-c1csc(COc3ccc(C(=O)O)cc3)n1)n2Cc1ccc(C(C)C)cc1 [Example 3-129],139 to 142
13,CCC(CC)c1ccc(N(Cc2ccc(-c3csc(COc4cc(C(=O)O)ccc4N)n3)cc2)C(C)C)cc1 [Example 1-90],179 to 181
14,CN(Cc1ccccc1)c1ccc(-c2csc(CN(CC(=O)O)Cc3ccc4ccccc4n3)n2)cc1 [Example 3-55],144 to 147
15,CCCC(CCC)c1ccc(COc2ccc(-c3csc(CN(CC(=O)O)C(=O)c4ccc(OC)cc4)n3)cc2)cc1 [Example 3-24],99 to 101
16,CCCC(CCC)c1ccc(OCc2ccc(-c3csc(CN4Cc5ccccc5C[C@@H]4C(=O)O)n3)cc2)cc1 [Example 1-47],77 to 82
17,CN(Cc1ccccc1)c1ccc(-c2csc(CN(CC(=O)O)Cc3cccc4ccccc34)n2)cc1 [Example 3-54],78 to 83
18,CCCC(CCC)c1ccc(COc2ccc(-c3csc(CN4Cc5ccccc5CC4C(=O)O)n3)cc2)cc1 (stereo not shown) [Example 3-118],127 to 130
19,CCC(CC)c1ccc(COc2ccc(-c3csc(CN(CC(=O)O)Cc4cc(C)cc(C)c4)n3)cc2)cc1 [Example 3-18],114 to 119
20,CCCC(CCC)c1ccc(N(Cc2ccc(-c3csc(COc4cc(C(=O)O)ccc4NC(=O)C(C)C)n3)cc2)C(C)C)cc1 [Example 1-113],166 to 168
21,CC(NCc1nc(-c2ccc(N(C)Cc3ccc(C4CCCCC4)cc3)cc2)cs1)C(=O)O (stereo not shown) [Example 3-78],135 to 138
22,CCCC(CCC)c1ccc(OCc2ccc(-c3csc(CN(CC(=O)O)CC(=O)Nc4ccccc4)c3)cc2)cc1 [Example 4-16],155

row,Structure (SMILES),melting point [°C]
1,CCCC(CCC)c1ccc(OCc2ccc(-c3csc(CN(CC(=O)O)Cc4cn(C)c5ccccc45)c3)cc2)cc1 [Example 4-86],170.5 to 171.9
2,CCCC(CCC)c1ccc(NC(=O)c2ccc(-c3csc(CN(CC(=O)O)Cc4ccccc4)n3)cc2)cc1 [Example 1-54],201 to 202
3,CN(CCc1ccc(CC(C)(C)C)cc1)c1ccc(-c2csc(CN(CC(=O)O)Cc3ccccc3)n2)cc1 [Example 3-31],133 to 134
4,CCCC(CCC)c1ccc(COc2ccc(-c3csc(CN(CC(=O)O)C(=O)c4ccccc4)n3)cc2)cc1 [Example 3-22],141 to 144
5,CCCC(CCC)c1ccc(OCc2ccc(-c3csc(CN(C)S(=O)(=O)CCCC(=O)O)n3)cc2)cc1 [Example 1-51],103.3 to 106.3
6,CCCC(CCC)c1ccc(OCc2ccc(-c3csc(CN(CC(=O)O)C(=O)COc4ccc(C)cc4)n3)cc2)cc1 [Example 1-130],170 to 172
7,CC(C)CN(Cc1ccc(-c2csc(CN(CC(=O)O)C(=O)c3ccccc3)n2)cc1)c1ccc(C(C)(C)C)cc1 [Example 1-28],147
8,CN(Cc1ccc(-c2ccccc2)cc1)c1ccc(-c2csc(CN(CC(=O)O)Cc3ccccc3)n2)cc1 [Example 3-37],167 to 170
9,CCOC(=O)c1ccc(OCc2nc(-c3nc4cc(C(CC)CC)ccc4n3Cc3ccc(C(C)C)cc3)cs2)cc1 [Example 3-128],106 to 107
10,CC(C)CN(Cc1ccc(-c2csc(CN(CC(=O)O)C(=O)Nc3ccccc3)n2)cc1)c1ccc(C(C)(C)C)cc1 [Example 1-27],119
11,CCCCOc1ccc(S(=O)(=O)N(CC)c2ccc(-c3csc(CN(CC(=O)O)Cc4ccccc4)c3)cc2)cc1 [Example 4-103],120.7 to 123.3
12,CCC(CC)c1ccc2c(c1)nc(-c1csc(COc3ccc(C(=O)O)cc3)n1)n2Cc1ccc(C(C)=O)cc1 [Example 3-130],127 to 132
13,CN(Cc1ccc(C2CCC(C)(C)CC2)cc1)c1ccc(-c2csc(CN(C)S(=O)(=O)CC(=O)O)n2)cc1 [Example 3-99],184 to 190
14,CC(C)CN(Cc1ccc(-c2csc(CN(CC(=O)O)Cc3ccccc3)n2)cc1)c1ccc(C(C)(C)C)cc1 [Example 1-23],133
15,CCCC(CCC)c1ccc(N(Cc2ccc3nc(-c4csc(COc5cncc(C(=O)O)c5)n4)oc3c2)C(C)C)cc1 [Example 1-140],135 to 138
16,CCC(CC)N(Cc1ccc(-c2csc(COc3cncc(C(=O)O)c3)n2)cc1)c1ccc(C(C)C)cc1 [Example 1-12],110 to 114
17,CCC(CC)c1ccc(N(Cc2ccc(-c3csc(N(C)Cc4ccc(C(=O)O)cc4)n3)cc2)C(C)C)cc1 [Example 1-20],150 to 153
18,CCCC(CCC)N(Cc1ccc(-c2csc(COc3ccc(C(=O)O)cc3)n2)cc1)c1ccc(C(C)C)cc1 [Example 1-9],166 to 168
19,CC(C)c1ccc(CN(CC(=O)O)Cc2nc(-c3ccc(N(Cc4ccc(C(C)C)cc4)C(C)C)cc3)cs2)cc1 [Example 3-45],77 to 82
20,CCCC(CCC)c1ccc(OCc2ccc(-c3csc(CNC(=O)c4ccc(C(=O)O)cn4)n3)cc2)cc1 [Example 1-163],164 to 166
